Read-outs that look alike come from different tables or passages of the source.
How the values were obtained:
[1] = molecular target: T1, reactive cysteine sites of other proteins in A549 cells (Homo sapiens, UniProt O60664); conditions: 4 h, O60664_C39 Perilipin-3
T1 sequence (O60664 1-434): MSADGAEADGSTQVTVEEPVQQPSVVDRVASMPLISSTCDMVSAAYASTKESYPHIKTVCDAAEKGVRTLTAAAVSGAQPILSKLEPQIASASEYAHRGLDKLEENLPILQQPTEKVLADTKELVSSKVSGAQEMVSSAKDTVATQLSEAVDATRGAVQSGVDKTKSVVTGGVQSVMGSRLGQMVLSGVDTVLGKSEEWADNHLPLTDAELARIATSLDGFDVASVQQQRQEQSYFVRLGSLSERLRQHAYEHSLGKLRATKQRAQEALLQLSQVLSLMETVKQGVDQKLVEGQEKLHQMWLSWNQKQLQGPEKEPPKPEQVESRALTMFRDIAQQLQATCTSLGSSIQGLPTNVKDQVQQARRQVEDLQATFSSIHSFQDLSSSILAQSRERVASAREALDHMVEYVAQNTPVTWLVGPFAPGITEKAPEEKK
Description: (§1) Further, the samples were digested with tosylsulfonyl phenylalanyl chloromethyl ketone (TPCK)-treated trypsin and endoGluC to increase the coverage of protein sequences, especially the PARK7 peptide containing Cys106 residue. Peptides generated by digestion from replicates of each sample were labeled using TMT16-plex to perform tandem mass tag (TMT)-based quantitative proteomics profiling. Following the TMT labeling, all samples were pooled and the peptides conjugated to the DBIA probe were enriched by streptavidin beads and analyzed by LC-MS/MS (Figure 3A). […] All cysteines were represented with the shortest peptide by using the average CR values of all the peptides with the same modified cysteine from the same protein in the same condition.[16],[27],[28]
(§2) A549 cells were seeded into 10 cm plates in 10 mL of media. […] The cells were then washed two times with cold PBS (1 mL per 10 cm plate) and collected by scraping them with a cell scraper. Cells were lysed by sonication in ice-cold PBS and centrifuged at 15,000 rpm for 2 min to remove cell debris. The BCA Gold protein assay (Thermo Fisher Scientific) was performed to determine protein concentration. Each sample (100 μg) was labeled with 500 μM DBIA probe for 1 h in the dark at room temperature (RT). Excess DBIA and disulfide bonds were quenched and reduced, respectively, using 5 mM dithiothreitol (DTT) for 30 min in the dark at RT. Reduced disulfide bonds were alkylated using 20 mM iodoacetamide for 30 min in the dark at RT. […] Digested peptides were labeled with TMTpro16-plex reagents (Thermo Fisher Scientific) in a 1:4 ratio by mass (peptides/TMT reagents) for 1 h at RT. Excess TMT reagent was quenched with 5 μL 6% hydroxylamine for 15 min at RT. All samples were then pooled and lyophilized.
(§3) Nonspecific binding peptides were washed away using the following procedure: 3 × 1 mL of PBS pH 7.4, 2 × 1 mL of PBS with 0.1% SDS pH 7.4, and 3 × 1 mL of HPLC-grade water. DBIA probe-containing peptides were eluted using 700 μL of 50% acetonitrile in 0.1% TFA, lyophilized using a Speedvac, and desalted using a handmade mini-SPE column (10% sorbent material of a Waters, OASIS 1 cm^3 HLB 30 mg cartridge). Column was equilibrated with 200 μL of 90% acetonitrile and 3 × 200 μL of 10 mM NH4HCO3 pH 8.4. The dried sample was dissolved in 200 μL of 10 mM NH4HCO3 pH 8.4, loaded onto the column, washed 3x with 200 μL of 10 mM NH4HCO3 pH 8.4, and eluted into 3 fractions with 150 μL of 10, 20, and 50% acetonitrile (in 10 mM NH4HCO3). Samples were then lyophilized.
(§4) 2.2.04 (www.matrixscience.com) for protein identification. Mascot searches were done with 10 ppm and 0.02 Da deviation for the precursor and fragment mass, respectively, and the enzymes trypsin and EndoGluC was specified, up to three missed cleavages were allowed. Methionine oxidation, acetyl (protein N-term), and DBIA on Cys were set as a variable modification. Carbamidomethyl on Cys and TMTpro on Lys and N-term were set as a fixed modification. Peptides with an FDR <1% were accepted. Peptides were only retained, if they were quantified and if there was exactly one DBIA modification on the peptide. The values for each TMT channel were normalized to the average of the values for the DMSO samples for the same peptide, and these values were named CR. For each peptide, the first entry of the Master Protein Accessions column was chosen as the Master Protein Accession, and the residue number of the cysteine modified by DBIA within the entire protein sequence was determined. Using this information, each peptide was assigned an identifier consisting of the Master Protein Accession and the residue number of the modified cysteine to assign each peptide to the respective modified cysteine residue. Within each replicate, CR values for all peptides with the same identifier (and thus the same modified cysteine residue) were combined by averaging and only the shortest Annotated Sequence was kept as the final Annotated Sequence.

[2] = molecular target: reactive cysteine sites of other proteins in A549 cells (Homo sapiens, UniProt P40222); conditions: 4 h, P40222_C87 Alpha-taxilin
Chain of reactive cysteine sites of other proteins in A549 cells (Homo sapiens, UniProt P40222) (P40222 whole entry): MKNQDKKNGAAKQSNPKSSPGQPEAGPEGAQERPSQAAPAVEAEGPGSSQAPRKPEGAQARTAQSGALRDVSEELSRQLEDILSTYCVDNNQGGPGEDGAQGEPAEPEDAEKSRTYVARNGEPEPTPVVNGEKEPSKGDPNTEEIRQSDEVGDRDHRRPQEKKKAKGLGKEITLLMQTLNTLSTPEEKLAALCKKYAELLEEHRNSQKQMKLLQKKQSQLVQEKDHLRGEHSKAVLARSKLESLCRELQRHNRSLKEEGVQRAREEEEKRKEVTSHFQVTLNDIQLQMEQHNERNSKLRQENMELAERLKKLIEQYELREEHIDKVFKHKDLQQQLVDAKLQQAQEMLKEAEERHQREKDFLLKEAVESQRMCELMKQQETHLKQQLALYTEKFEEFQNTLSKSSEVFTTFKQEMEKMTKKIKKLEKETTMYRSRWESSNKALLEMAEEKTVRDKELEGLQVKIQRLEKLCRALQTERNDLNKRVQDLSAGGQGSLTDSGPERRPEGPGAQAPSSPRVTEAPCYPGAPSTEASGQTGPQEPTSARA
Description: as §1, §2, §3, §4

[3] = molecular target: reactive cysteine sites of other proteins in A549 cells (Homo sapiens, UniProt Q13085); conditions: 4 h, Q13085_C1297 Acetyl-CoA carboxylase 1
Description: as §1, §2, §3, §4

[4] = molecular target: reactive cysteine sites of other proteins in A549 cells (Homo sapiens, UniProt P04080); conditions: 4 h, P04080_C3 Cystatin-B
Chain of reactive cysteine sites of other proteins in A549 cells (Homo sapiens, UniProt P04080) (P04080 whole entry): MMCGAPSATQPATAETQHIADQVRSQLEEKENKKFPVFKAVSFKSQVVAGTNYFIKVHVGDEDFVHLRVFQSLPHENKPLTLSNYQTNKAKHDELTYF
Description: as §1, §2, §3, §4

A549 cells = assay: Cell viability assay (CellTiter-Blue); assay type: cell-based, human; conditions: up to 5 μM, 72 h incubation
Protocol: 5 × 10^3 A549 cells were seeded into 96-well plates. The following day, the indicated final concentrations of JYQ-164 and JYQ-173 were added to the cells, and DMSO was used as a control. Inhibitors were renewed at 36 h, and cells were incubated with them an additional 36 h. Cell viability was measured using the CellTiter-Blue viability assay (Promega). Relative survival was normalized to the DMSO-treated sample and corrected for background signal. page 8: Figure S6. Cytotoxicity assay for JYQ-164 and JYQ-173 in A549 cells. ( A) PARK7 engagement of JYQ -164 and JYQ-173 in A459 cells. A549 cells were incubated with […] The reactions were stopped by addition of NuPAGE™ LDS sample buffer (4x) , followed by cell lysis, SDS-PAGE, fluorescence scanning, and immunoblott in g against PARK7 and β-actin. β-actin was used as a loading control. (B) A549 cells were incubated with indicated concentration of JYQ-164 (left panel) or JYQ-173 (right panel) for 72 h where the inhibitors were renewed after 36 h. Cell viability was measured using the CellTiter-Blue assay. Relative viability was normalized to untreated control and corrected for background signal. S8 (1 picture or pasted object on this page, not shown here)

N#CN1CC[C@@H](C(=O)Nc2nc3c(s2)CN(C(=O)c2cc(-n4ccnn4)ccc2F)CC3)C1 [Compound 84, (R)-1-Cyano-N-(5-(2-fluoro-5-(1H-1,2,3-triazol-1-yl)benzoyl)-4,5,6,7-tetrahydrothiazolo[5,4-c]pyridin-2-yl)pyrrolidine-3-carboxamide]
Average log2 CR (DMSO/inhibitor) ([1]; A549, 0.5 µM): 0.4419 | Average log2 CR (DMSO/inhibitor) ([1]; A549, 5 µM): 1.439 | Average log2 CR (DMSO/inhibitor) ([2]; A549, 0.5 µM): 0.7392 | Average log2 CR (DMSO/inhibitor) ([2]; A549, 5 µM): 1.414 | Average log2 CR (DMSO/inhibitor) ([3]; A549, 0.5 µM): 0.6874 | Average log2 CR (DMSO/inhibitor) ([3]; A549, 5 µM): 1.886 | Average log2 CR (DMSO/inhibitor) ([4]; A549, 0.5 µM): 0.9051 | Average log2 CR (DMSO/inhibitor) ([4]; A549, 5 µM): 1.676 | cytotoxicity (A549 cells): did not show any cytotoxicity

— publication PMC11129182, “Development of Inhibitors, Probes, and PROTAC Provides a Complete Toolbox to Study PARK7 in the Living Cell” (Journal of Medicinal Chemistry, 2024)
